Series [1] concerns receptor-negative human melanoma M21L cells. In words: Cell uptake and internalization in M21L cells. The class given is cell-based. As to conditions: negative M21L cell line, 37 °C, 90 min. On the procedure:
(§1) Cell uptake and internalization studies were performed on receptor-positive human melanoma M21 (expressing high levels of αvβ3 integrin and moderate level of integrin αvβ5), human breast cancer MCF7 (exclusively expressing αvβ5), and receptor-negative human melanoma M21L cell lines. The expression of αvβ3 and αvβ5 by cells was already evaluated by flow cytometry (Table 2). The stability of each radiolabeled peptide in the culture media before and after cell exposure was assessed.
(§2) Experiments were conducted in suspension at 37 °C. The working conditions were set up to avoid cell damage and/or death. With the use of these information, the cells were pre-incubated in sterile glass tubes at 37 °C for 10 min, in the presence or not of cRGDfK pentapeptide (50 µL; 1.65 mM).
(§3) Then, 1 mL of the cell suspension (1 × 10^6 cells/mL) was incubated with intermittent agitation with 10 µL (10 µCi) of ^99mTc1–3. At 90 min, the cells were moved in Eppendorf microcentrifuge tubes (1.5 mL) and the incubation was interrupted by centrifugation (3000 rpm for 5 min at 10 °C). The supernatant (S1) was separated from the pellet. The cell pellet was treated 10 min at room temperature with saline acetate buffer (CH3COOH 0.2M/NaCl 0.5 M) to remove the membrane-bound compound. After centrifugation (3000 rpm for 10 min at 10 °C), the supernatant (S2) was separated from the pellet (P1), and each fraction was collected, placed in a separated counting tube, and the activity was measured using a NaI counter (Cobra II, Packard) to estimate both the cell uptake and the internalized fraction.
(§4) The uptake of complexes was expressed as percentage cell uptake of the total activity on 10^6 cells (% cell uptake/10^6 cells).
(§5) All assessments were conducted in triplicate for three experiments.

Series [2] has as its system serum proteins. The class given is in vitro ADME. On the procedure: Thus, to have some predictive indications of the metabolic outcome of our compounds, the binding to serum proteins and the enzymatic biotransformation of ^99mTc1–3 in blood and tissue homogenates were assessed in vitro by incubating the purified compounds at 37 °C in human and mouse sera as well as in murine liver and kidney homogenates.
Protein Binding. The affinity of the ^99mTc(N) complexes toward the serum proteins was evaluated by chromatographic methods.
Upon incubation, 25 µL of each sample was withdrawn and loaded on a pre-spun (735× g for 2 min) Sephadex G-50 mini-column. The column was centrifuged at 735 × g for 1 min. The collected eluate and the column were counted in a NaI-scintillation counter. The protein-bound complex was calculated as the percentage of the total activity.

A short description of series [3]: Cysteine (Cys) and Glutathione (GSH) challenge. It is filed as physicochemical. Conditions: 37 °C, pH 7.4, 24 h; for % RCP in challenge with L-cysteine: excess free L-cysteine (10 mM); for % RCP in challenge with GSH: excess glutathione. On the procedure: The inertness of the radioconjugates under conditions relevant for in vivo applications were assessed by evaluating the stability of ^99mTc1–3 in solution and after incubation (37 °C) with transchelating agents (glutathione and L-cysteine, 10–1 mM, pH 7.4).
Cysteine (Cys) and Glutathione (GSH) Challenge. Challenge experiments were carried out with the purified complex using an excess of Cys or GSH. An aliquot (50 µL) of an aqueous stock solution of cysteine hydrochloride (10 mM or 2 mM) was added to a propylene test tube containing PBS (400 µL, pH 7.4) and the relevant [^99mTc(N)(H2NS-cRGDfK)(PNP)]^+ complex (50 µL). The mixture was vortexed and incubated at 37 °C for 24 h. A control reaction containing an equal volume of water, instead of cysteine hydrochloride, was studied in parallel. At 0.5, 1, 3, and 24 h, aliquots of the reaction mixture were withdrawn and analyzed by HPLC chromatography. A similar procedure was applied using GSH (50 µL, 10 mM) as challenger.

Series [4] concerns human melanoma M21 (αvβ3 positive) cells. The series can be described thus: Cell uptake and internalization in M21 cells. The class given is cell-based. As to conditions: for cell uptake (sum of surface bound and internalized radioactivity), blocked: M21 blocked by an excess of cold cRGDfK; for cell uptake (sum of surface bound and internalized radioactivity), blocked / cell uptake (sum of surface bound and internalized radioactivity): 37 °C, 90 min; for cell uptake (sum of surface bound and internalized radioactivity): M21 unblocked; for specific/nonspecific ratio, internalized radioactivity only: melanoma cell lines. On the procedure: as §1, §2, §3, §4, §5

On to [Tc(N)(H2NS-cRGDfK)(PNP3)]^+ [^99mTc1], for which, in series [1], the “cell uptake (sum of surface bound and internalized radioactivity)” value was 1.77 ± 0.20 % cell uptake/10^6 cells. In addition, in series [2], the “% Protein Binding” value is 14.95 ± 1.95%. In addition, in series [3], the “% RCP in challenge with L-cysteine” value is listed as greater than 95% and the “% RCP in challenge with GSH” value was greater than 95%. Moreover, in series [4], the “cell uptake (sum of surface bound and internalized radioactivity), blocked” value turned out to be 2.15 ± 0.17 % cell uptake/10^6 cells; the “cell uptake (sum of surface bound and internalized radioactivity)” value was found to be 2.88 ± 0.09 % cell uptake/10^6 cells; the “specific/nonspecific ratio, internalized radioactivity only” value (shortened to “specific/nonspecific ratio”) stood at 4.5.
Turning to [Tc(N)(H2NS-cRGDfK)(PNP43)]^+ [^99mTc2], the “cell uptake (sum of surface bound and internalized radioactivity)” value in series [1] is listed as 1.65 ± 0.40 % cell uptake/10^6 cells. For the same substance, the “% Protein Binding” value in series [2] is recorded as 13.63 ± 2.95%. Moreover, in series [3], the “% RCP in challenge with L-cysteine” value is recorded as greater than 95% and the “% RCP in challenge with GSH” value was greater than 95%. Moreover, in series [4], the “cell uptake (sum of surface bound and internalized radioactivity), blocked” value was 1.48 ± 0.12 % cell uptake/10^6 cells; the “cell uptake (sum of surface bound and internalized radioactivity)” value was found to be 2.57 ± 0.42 % cell uptake/10^6 cells; the “specific/nonspecific ratio” value is recorded as 3.28.
As to “[Tc(N)(H2NS-cRGDfK)(PNP3OH)]^+ [^99mTc3]”, in series [1], the “cell uptake (sum of surface bound and internalized radioactivity)” value is reported as 1.73 ± 0.27 % cell uptake/10^6 cells. In addition, in series [2], the “% Protein Binding” value worked out at 7.91 ± 2.01%. Further, in series [3], the “% RCP in challenge with L-cysteine” value turned out to be 27.31 ± 3.6% and the “% RCP in challenge with GSH” value is 73.33 ± 2.8%. Further, in series [4], the “cell uptake (sum of surface bound and internalized radioactivity), blocked” value is 1.41 ± 0.25 % cell uptake/10^6 cells; the “cell uptake (sum of surface bound and internalized radioactivity)” value is listed as 2.60 ± 0.36 % cell uptake/10^6 cells; the “specific/nonspecific ratio” value came to 4.29.

These data come from paper PMC9029856, “Impact of Different [Tc(N)PNP]-Scaffolds on the Biological Properties of the Small cRGDfK Peptide: Synthesis, In Vitro and In Vivo Evaluations” (Molecules, 2022).
